Activity calls are given as the source filed them. The rule behind the calls is not given here.
Columns and labels:
[1] = tested on: Human immunodeficiency virus 1; test: Antiviral activity against VSV-G pseudotyped HIV-1 NL4-3 infected in human U373-MAGI cells assessed as Pol mutation at 260 uM incubated for 2 hrs prior to infection measured at 72 hrs post infection by illumina sequencing method (reference value: 18.5%); format: functional
[2] = tested on: Human immunodeficiency virus 1; test: Antiviral activity against VSV-G pseudotyped HIV-1 NL4-3 infected in human U373-MAGI cells assessed as G to C transversion at 260 uM incubated for 2 hrs prior to infection measured at 72 hrs post infection by illumina sequencing method relative to control; format: functional
[3] = tested on: Human immunodeficiency virus 1; test: Antiviral activity against VSV-G pseudotyped HIV-1 NL4-3 infected in human U373-MAGI cells assessed as C to G transversion at 260 uM incubated for 2 hrs prior to infection measured at 72 hrs post infection by illumina sequencing method relative to control; format: functional
[4] = tested on: Human immunodeficiency virus 1; test: Antiviral activity against VSV-G pseudotyped HIV-1 NL4-3 infected in human U373-MAGI cells assessed as Env mutation at 260 uM incubated for 2 hrs prior to infection measured at 72 hrs post infection by illumina sequencing method (reference value: 21.4%); format: functional
[5] = tested on: Human immunodeficiency virus 1; test: Antiviral activity against VSV-G pseudotyped HIV-1 NL4-3 infected in human U373-MAGI cells assessed as Vif mutation at 260 uM incubated for 2 hrs prior to infection measured at 72 hrs post infection by illumina sequencing method (reference value: 19.2%); format: functional
[6] = tested on: Human immunodeficiency virus 1; test: Antiviral activity against VSV-G pseudotyped HIV-1 NL4-3 infected in human U373-MAGI cells assessed as Gag mutation at 260 uM incubated for 2 hrs prior to infection measured at 72 hrs post infection by illumina sequencing method (reference value: 18.4%); format: functional
[7] = tested on: Human immunodeficiency virus 1; test: Antiviral activity against VSV-G pseudotyped HIV-1 NL4-3 infected in human U373-MAGI cells assessed as increase in frequency of G to C transversion at 260 uM incubated for 2 hrs prior to infection measured at 72 hrs post infection by illumina sequencing method relative to control; format: functional
[8] = tested on: Human immunodeficiency virus 1; test: Antiviral activity against VSV-G pseudotyped HIV-1 NL4-3 infected in human U373-MAGI cells assessed as Nef mutation at 260 uM incubated for 2 hrs prior to infection measured at 72 hrs post infection by illumina sequencing method (reference value: 22.6%); format: functional
[9] = Reduction in dCTP level in human U373-MAGI cells at EC75 after 4 hrs by LC-MS/MS analysis relative to control; format: functional; parameters: scale not given: the % may be the effect or the level left
[10] = tested on: Human immunodeficiency virus 1; test: Antiviral activity against VSV-G pseudotyped HIV-1 NL4-3 infected in human U373-MAGI cells assessed as reduction in U5-gag level at 25 to 400 uM after 2 to 72 hrs by qPCR method; format: functional, organism-based
[11] = tested on: Human immunodeficiency virus 1; test: Antiviral activity against VSV-G pseudotyped HIV-1 NL4-3 infected in human U373-MAGI cells assessed as increase in mutation frequency at 260 uM incubated for 2 hrs prior to infection measured at 72 hrs post infection by illumina sequencing method; format: functional
[12] = tested on: Human immunodeficiency virus 1; test: Antiviral activity against VSV-G pseudotyped HIV-1 NL4-3 infected in human U373-MAGI cells assessed as reduction in gag level at 25 to 400 uM after 2 to 72 hrs by qPCR method; format: functional, organism-based
[13] = tested on: Human immunodeficiency virus 1; test: Antiviral activity against VSV-G pseudotyped HIV-1 NL4-3 infected in human U373-MAGI cells assessed as increase in frequency of C to G transversion at 260 uM incubated for 2 hrs prior to infection measured at 72 hrs post infection by illumina sequencing method relative to control; format: functional
[14] = tested on: Human immunodeficiency virus 1; test: Antiviral activity against VSV-G pseudotyped HIV-1 NL4-3 infected in human U373-MAGI cells assessed as Nef mutation at 3.8 uM incubated for 2 hrs prior to infection measured at 72 hrs post infection by illumina sequencing method (reference value: 22.6%); format: functional
[15] = tested on: Human immunodeficiency virus 1; test: Antiviral activity against VSV-G pseudotyped HIV-1 NL4-3 infected in human U373-MAGI cells assessed as Gag mutation at 3.8 uM incubated for 2 hrs prior to infection measured at 72 hrs post infection by illumina sequencing method (reference value: 18.4%); format: functional
[16] = tested on: Human immunodeficiency virus 1; test: Antiviral activity against VSV-G pseudotyped HIV-1 NL4-3 infected in human U373-MAGI cells assessed as Vif mutation at 3.8 uM incubated for 2 hrs prior to infection measured at 72 hrs post infection by illumina sequencing method (reference value: 19.2%); format: functional
[17] = tested on: Human immunodeficiency virus 1; test: Antiviral activity against VSV-G pseudotyped HIV-1 NL4-3 infected in human U373-MAGI cells assessed as Pol mutation at 3.8 uM incubated for 2 hrs prior to infection measured at 72 hrs post infection by illumina sequencing method (reference value: 18.5%); format: functional
[18] = tested on: Human immunodeficiency virus 1; test: Antiviral activity against VSV-G pseudotyped HIV-1 NL4-3 infected in human U373-MAGI cells assessed as Env mutation at 3.8 uM incubated for 2 hrs prior to infection measured at 72 hrs post infection by illumina sequencing method (reference value: 21.4%); format: functional
[19] = tested on: Human immunodeficiency virus 1; test: Antiviral activity against VSV-G pseudotyped HIV-1 NL4-3 infected in human U373-MAGI cells assessed as reduction in gag level at 0.25 to 8 uM after 2 to 72 hrs by qPCR method; format: functional, organism-based
[20] = tested on: Human immunodeficiency virus 1; test: Antiviral activity against VSV-G pseudotyped HIV-1 NL4-3 infected in human U373-MAGI cells assessed as reduction in U5-gag level at 0.25 to 8 uM after 2 to 72 hrs by qPCR method; format: functional, organism-based
U373-MAGI [21] = test: Effect on dRGU-TP level in human U373-MAGI cells at 0.5 mM preincubated for 2 hrs followed by 5-aza-dC addition measured after 4 hrs by LC-MS/MS analysis; format: functional, cell-based
U373-MAGI [22] = test: Reduction in dCTP level in human U373-MAGI cells at 2 mM after 6 hrs by LC-MS/MS analysis; format: functional, cell-based
U373-MAGI [23] = test: Increase in 5-aza-dCTP/dCTP ratio in human U373-MAGI cells at 0.5 mM preincubated for 2 hrs followed by 5-aza-C addition measured after 4 hrs by LC-MS/MS analysis relative to 5-aza-C; format: functional, cell-based
U373-MAGI [24] = test: Reduction in dGTP level in human U373-MAGI cells at 2 mM after 6 hrs by LC-MS/MS analysis; format: functional, cell-based
U373-MAGI [25] = test: Increase in 5-aza-dCTP/dCTP ratio in human U373-MAGI cells at 0.5 mM preincubated for 2 hrs followed by 5-aza-dC addition measured after 4 hrs by LC-MS/MS analysis relative to 5-aza-dC; format: functional, cell-based
U373-MAGI [26] = test: Reduction in dRGU-TP level in human U373-MAGI cells at 0.5 mM preincubated for 2 hrs followed by 5-aza-C addition measured after 4 hrs by LC-MS/MS analysis; format: functional, cell-based
U373-MAGI [27] = test: Reduction in 5-aza-dCTP level in human U373-MAGI cells at 2 mM preincubated for 2 hrs followed by 5-aza-C addition measured after 4 hrs by LC-MS/MS analysis; format: functional, cell-based
U373-MAGI [28] = test: Increase in 5-aza-dCTP/dCTP ratio in human U373-MAGI cells at 2 mM preincubated for 2 hrs followed by 5-aza-dC addition measured after 4 hrs by LC-MS/MS analysis relative to 5-aza-dC; format: functional, cell-based
U373-MAGI [29] = test: Reduction in 5-aza-dCTP level in human U373-MAGI cells at 0.5 mM preincubated for 2 hrs followed by 5-aza-C addition measured after 4 hrs by LC-MS/MS analysis; format: functional, cell-based
U373-MAGI [30] = test: Effect on dRGU-TP level in human U373-MAGI cells at 2 mM preincubated for 2 hrs followed by 5-aza-dC addition measured after 4 hrs by LC-MS/MS analysis; format: functional, cell-based
U373-MAGI [31] = test: Reduction in dCTP level in human U373-MAGI cells at 0.5 mM preincubated for 2 hrs followed by 5-aza-dC addition measured after 4 hrs by LC-MS/MS analysis relative to 5-aza-dC; format: functional, cell-based
[32] = tested on: Human immunodeficiency virus 1; test: Potentiation of 5-Aza-C-induced antiviral activity against VSV-G pseudotyped HIV-1 NL4-3 infected in human U373-MAGI cells assessed as decrease in 5-Aza-C EC50 at 500 uM preincubated for 2 hrs followed by 5-Aza-C addition for 2 hrs and subsequent viral infection measured at 72 hrs post infection by flow cytometric analysis relative to control; format: functional
U373-MAGI [33] = test: Reduction in dCTP level in human U373-MAGI cells at 0.5 mM after 6 hrs by LC-MS/MS analysis; format: functional, cell-based
U373-MAGI [34] = test: Reduction in dTTP level in human U373-MAGI cells at 0.5 mM after 6 hrs by LC-MS/MS analysis; format: functional, cell-based
U373-MAGI [35] = test: Reduction in dATP level in human U373-MAGI cells at 2 mM after 6 hrs by LC-MS/MS analysis; format: functional, cell-based
[36] = Cytotoxicity against human U373-MAGI cells at 500 uM measured at 72 hrs by Celltiter-Glo luminescent cell viability assay; format: cell-based
U373-MAGI [37] = test: Reduction in dCTP level in human U373-MAGI cells at 2 mM preincubated for 2 hrs followed by 5-aza-dC addition measured after 4 hrs by LC-MS/MS analysis relative to 5-aza-dC; format: functional, cell-based
U373-MAGI [38] = test: Reduction in dRGU-TP level in human U373-MAGI cells at 2 mM preincubated for 2 hrs followed by 5-aza-C addition measured after 4 hrs by LC-MS/MS analysis; format: functional, cell-based
U373-MAGI [39] = test: Increase in 5-aza-dCTP/dCTP ratio in human U373-MAGI cells at 2 mM preincubated for 2 hrs followed by 5-aza-C addition measured after 4 hrs by LC-MS/MS analysis relative to 5-aza-C; format: functional, cell-based
U373-MAGI [40] = test: Effect on 5-aza-dCTP level in human U373-MAGI cells at 0.5 mM preincubated for 2 hrs followed by 5-aza-dC addition measured after 4 hrs by LC-MS/MS analysis; format: functional, cell-based
U373-MAGI [41] = test: Reduction in dCTP level in human U373-MAGI cells at 2 mM preincubated for 2 hrs followed by 5-aza-C addition measured after 4 hrs by LC-MS/MS analysis relative to 5-aza-C; format: functional, cell-based
U373-MAGI [42] = test: Reduction in dTTP level in human U373-MAGI cells at 2 mM after 6 hrs by LC-MS/MS analysis; format: functional, cell-based
U373-MAGI [43] = test: Effect on 5-aza-dCTP level in human U373-MAGI cells at 2 mM preincubated for 2 hrs followed by 5-aza-dC addition measured after 4 hrs by LC-MS/MS analysis; format: functional, cell-based
U373-MAGI [44] = test: Reduction in dCTP level in human U373-MAGI cells at 0.5 mM preincubated for 2 hrs followed by 5-aza-C addition measured after 4 hrs by LC-MS/MS analysis; format: functional, cell-based
U373-MAGI [45] = test: Reduction in dGTP level in human U373-MAGI cells at 0.5 mM after 6 hrs by LC-MS/MS analysis; format: functional, cell-based
[46] = tested on: Human immunodeficiency virus 1; test: Antiviral activity against VSV-G pseudotyped HIV-1 NL4-3 infected in human U373-MAGI cells assessed as reduction in viral infectivity at 500 uM incubated for 4 hrs prior to viral infection measured at 72 hrs post infection by flow cytometric analysis; format: functional, organism-based
U373-MAGI [47] = test: Reduction in dATP level in human U373-MAGI cells at 0.5 mM after 6 hrs by LC-MS/MS analysis; format: functional, cell-based

SMILES: Nc1ncn([C@@H]2O[C@H](CO)[C@@H](O)[C@H]2O)c(=O)n1 [AZACITIDINE]
- Activity [1]: 25.8%
- Activity [2]: 60%
- Activity [3]: 10%
- Activity [4]: 19.1%
- Activity [5]: 12.8%
- Activity [6]: 17%
- fold change (FC) [7]: 67
- Activity [8]: 25.4%
- Activity [9]: 50%
- Activity [10]: Active
- fold change (FC) [11]: 6.8
- Activity [12]: Active
- fold change (FC) [13]: 43

SMILES: Nc1ncn([C@H]2C[C@H](O)[C@@H](CO)O2)c(=O)n1 [DECITABINE]
- Activity [14]: 21.5%
- Activity [15]: 16%
- Activity [16]: 15.9%
- Activity [17]: 26%
- Activity [18]: 20.5%
- Activity [9]: 50%
- Activity [19]: Active
- Activity [20]: Active

SMILES: NC(=O)NO [HYDROXYUREA]
- Activity (U373-MAGI [21]): inactive
- Activity (U373-MAGI [22]): inactive
- Activity (U373-MAGI [23]): Active
- Activity (U373-MAGI [24]): inactive
- Activity (U373-MAGI [25]): Active
- Activity (U373-MAGI [26]): inactive
- Activity (U373-MAGI [27]): inactive
- Activity (U373-MAGI [28]): Active
- Activity (U373-MAGI [29]): inactive
- Activity (U373-MAGI [30]): inactive
- Activity (U373-MAGI [31]): Active
- fold change (FC) [32]: 2.5
- Activity (U373-MAGI [33]): inactive
- Activity (U373-MAGI [34]): inactive
- Activity (U373-MAGI [35]): Active
- Activity [36]: Non-toxic
- Activity (U373-MAGI [37]): Active
- Activity (U373-MAGI [38]): inactive
- Activity (U373-MAGI [39]): inactive
- Activity (U373-MAGI [40]): inactive
- Activity (U373-MAGI [41]): Active
- Activity (U373-MAGI [42]): inactive
- Activity (U373-MAGI [43]): inactive
- Activity (U373-MAGI [44]): Active
- Activity (U373-MAGI [45]): inactive
- Activity [46]: Active
- Activity (U373-MAGI [47]): inactive

— ChEMBL document CHEMBL3797079, “Synergistic reduction of HIV-1 infectivity by 5-azacytidine and inhibitors of ribonucleotide reductase” (Bioorg Med Chem, 2016)
